Test results as given in patent publication US20250145589A1, “PYRIDINE DERIVATIVE AND USE THEREOF” (SICHUAN HUIYU PHARMACEUTICAL CO., LTD., priority 2021, published 2025).
Read-outs that look alike come from different tables or passages of the source.

Experiments:
[1] = target: PI3Kδ (Homo sapiens (Human), UniProt O00329); assay: Inhibition of PI3Kδ efficacy assay (ADP-Glo kinase assay); format: biochemical; conditions: read-out: PI3Kδ inhibitory activity (IC50)
Procedure: Test Example 2: Inhibition of PI3Kδ Efficacy assay The ADP-Glo™ kinase assay was used to assess the inhibition of PI3Kδ with our compounds. The utilized proteins and assay reagents were obtained from the ADP-Glo™ Kinase Assay Kit (Promega). Initially, a 2 mM stock solution of the test compound (dissolved in DMSO) was serially diluted in five-fold concentrations using DMSO to obtain eight working solutions 1 (200×) Subsequently, each of the eight working solutions 1 was further diluted in a 20-fold gradient by adding 5 μL into 95 μL of ddH2O, resulting in eight working solutions 2 (10×). […] Subsequently, 2 μL of 2.5×PI and ATP solution mixture were added to each well, mixed, and incubated at RT for 60 minutes. Then, 5 μL of ADP-Glo (containing 10 mM MgCl2) reagent was added to each well, mixed, and incubated at RT for 40 minutes. Finally, 10 μL of the Kinase Detection Reagent was added to each well, mixed, and incubated at RT for 40 minutes. Luminescence values were recorded using a multi-mode microplate reader with luminescence channel settings, and the inhibitory rate was calculated using the following formula: [formula] Data were analyzed using GraphPad Prism with log(inhibitor) vs. response—Variable Slope(four parameters) fitting calculations for IC50 values.

[2] = test system: NCI-H358 cells (KRAS G12C mutant); assay: NCI-H358 cell proliferation inhibition (CellTiter-Glo); format: cell-based; conditions: Homo sapiens, NCI-H358, 72 h; H358 cells (G12C mutation), 3 days, Table 6; read-out: NCI-H358 (IC50)
[3] = target: PI3Kα (Homo sapiens (Human), UniProt P42336); assay: Inhibition of PI3Kα efficacy assay (ADP-Glo kinase assay); format: biochemical; conditions: read-out: PI3Kα inhibitory activity (IC50)
Chain of PI3Kα (P42336 whole entry): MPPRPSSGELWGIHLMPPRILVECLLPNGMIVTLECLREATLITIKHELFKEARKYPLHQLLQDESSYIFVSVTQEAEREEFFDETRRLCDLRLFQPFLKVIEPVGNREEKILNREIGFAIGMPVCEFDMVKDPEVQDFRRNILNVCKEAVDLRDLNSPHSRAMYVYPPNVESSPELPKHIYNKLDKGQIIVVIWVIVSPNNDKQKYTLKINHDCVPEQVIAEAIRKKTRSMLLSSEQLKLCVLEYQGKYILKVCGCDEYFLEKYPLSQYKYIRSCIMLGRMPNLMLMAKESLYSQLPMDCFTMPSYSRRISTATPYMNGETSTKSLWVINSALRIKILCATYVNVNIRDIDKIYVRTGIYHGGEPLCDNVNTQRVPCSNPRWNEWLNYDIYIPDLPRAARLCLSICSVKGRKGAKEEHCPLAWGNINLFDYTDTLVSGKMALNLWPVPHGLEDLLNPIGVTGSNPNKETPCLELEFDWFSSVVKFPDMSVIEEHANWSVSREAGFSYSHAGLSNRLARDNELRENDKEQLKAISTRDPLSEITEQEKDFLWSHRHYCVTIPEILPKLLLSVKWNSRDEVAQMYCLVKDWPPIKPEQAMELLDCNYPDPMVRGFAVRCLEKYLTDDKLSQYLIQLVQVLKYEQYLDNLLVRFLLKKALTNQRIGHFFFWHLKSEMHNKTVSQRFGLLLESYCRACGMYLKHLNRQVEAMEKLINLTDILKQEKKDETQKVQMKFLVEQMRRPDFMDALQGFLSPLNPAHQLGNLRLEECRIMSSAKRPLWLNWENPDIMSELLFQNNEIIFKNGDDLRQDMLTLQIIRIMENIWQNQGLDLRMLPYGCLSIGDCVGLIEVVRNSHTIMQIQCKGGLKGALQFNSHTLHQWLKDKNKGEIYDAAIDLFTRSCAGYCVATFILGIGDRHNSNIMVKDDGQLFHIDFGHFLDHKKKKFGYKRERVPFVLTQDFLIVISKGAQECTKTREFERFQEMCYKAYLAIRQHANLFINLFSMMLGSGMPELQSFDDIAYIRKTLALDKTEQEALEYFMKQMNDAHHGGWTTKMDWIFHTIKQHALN
Chain of PI3Kα (P27986 whole entry partner): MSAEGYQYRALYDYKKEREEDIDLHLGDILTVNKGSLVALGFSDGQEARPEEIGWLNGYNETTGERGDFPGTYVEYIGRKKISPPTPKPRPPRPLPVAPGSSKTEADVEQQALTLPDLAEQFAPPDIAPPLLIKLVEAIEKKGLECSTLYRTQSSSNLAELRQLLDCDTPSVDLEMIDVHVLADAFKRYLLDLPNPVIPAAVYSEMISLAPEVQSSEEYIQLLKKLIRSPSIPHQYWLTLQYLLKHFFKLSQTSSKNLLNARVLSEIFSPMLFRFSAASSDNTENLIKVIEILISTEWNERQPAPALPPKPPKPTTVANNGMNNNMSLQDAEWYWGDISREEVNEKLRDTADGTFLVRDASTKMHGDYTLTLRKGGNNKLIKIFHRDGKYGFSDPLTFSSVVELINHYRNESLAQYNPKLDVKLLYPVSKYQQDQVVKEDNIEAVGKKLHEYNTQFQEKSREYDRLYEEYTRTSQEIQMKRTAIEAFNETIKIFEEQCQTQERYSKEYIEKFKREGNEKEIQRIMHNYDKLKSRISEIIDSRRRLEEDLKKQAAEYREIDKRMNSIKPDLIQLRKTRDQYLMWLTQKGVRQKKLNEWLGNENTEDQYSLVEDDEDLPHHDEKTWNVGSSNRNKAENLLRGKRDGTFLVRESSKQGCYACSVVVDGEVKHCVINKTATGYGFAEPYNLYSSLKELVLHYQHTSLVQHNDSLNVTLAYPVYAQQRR
Procedure, shortened: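 Eight five-fold dilutions of compound (2 mM DMSO stock) tested; kinase reaction with PI and ATP ran 60 min at RT, followed by ADP-Glo and detection reagent steps of 40 min each. Four-parameter logistic fitting gave IC50 values.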

Chain of PI3Kδ (O00329 whole entry): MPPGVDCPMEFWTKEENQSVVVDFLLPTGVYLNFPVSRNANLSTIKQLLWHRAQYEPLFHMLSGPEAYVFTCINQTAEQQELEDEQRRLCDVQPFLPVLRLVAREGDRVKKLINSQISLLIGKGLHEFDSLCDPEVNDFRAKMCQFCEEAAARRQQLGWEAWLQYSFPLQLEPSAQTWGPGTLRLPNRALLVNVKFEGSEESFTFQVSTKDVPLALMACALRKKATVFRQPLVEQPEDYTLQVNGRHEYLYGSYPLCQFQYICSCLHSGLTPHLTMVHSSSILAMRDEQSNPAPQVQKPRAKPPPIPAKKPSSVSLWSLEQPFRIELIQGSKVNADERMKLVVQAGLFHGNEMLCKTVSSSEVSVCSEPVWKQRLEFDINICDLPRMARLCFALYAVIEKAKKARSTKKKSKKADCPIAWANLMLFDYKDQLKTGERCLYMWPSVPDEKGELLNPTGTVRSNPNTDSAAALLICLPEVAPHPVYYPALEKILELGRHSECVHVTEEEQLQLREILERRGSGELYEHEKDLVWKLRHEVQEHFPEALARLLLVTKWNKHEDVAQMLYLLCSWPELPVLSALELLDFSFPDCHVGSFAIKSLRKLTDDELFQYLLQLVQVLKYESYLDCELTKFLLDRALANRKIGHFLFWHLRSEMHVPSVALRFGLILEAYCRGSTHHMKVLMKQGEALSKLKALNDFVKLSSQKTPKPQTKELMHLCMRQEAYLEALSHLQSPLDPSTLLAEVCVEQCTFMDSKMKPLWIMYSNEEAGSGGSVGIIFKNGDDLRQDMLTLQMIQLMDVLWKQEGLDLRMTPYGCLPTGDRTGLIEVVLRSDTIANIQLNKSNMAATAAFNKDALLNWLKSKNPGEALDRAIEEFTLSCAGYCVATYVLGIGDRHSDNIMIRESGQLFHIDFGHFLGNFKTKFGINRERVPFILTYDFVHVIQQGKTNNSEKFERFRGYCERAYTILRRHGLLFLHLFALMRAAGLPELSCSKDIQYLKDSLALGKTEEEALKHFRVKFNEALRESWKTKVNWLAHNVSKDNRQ
Chain of PI3Kδ (P27986 whole entry partner): as the sequence (P27986 whole entry partner) above

Row | SMILES | IC50 ([1]; Table 1) [nM] | IC50 [2] [nM] | IC50 ([3]; Table 1) [nM] | IC50 ([1]; Table 2) [nM] | IC50 ([3]; Table 2) [nM]
1 | C=CC(=O)N1CCN(c2ncnc3ccc(-c4cnc(OC)c(NS(=O)(=O)c5ccccc5)c4)cc23)CC1 [Example 24, N-(5 (4-(4-acryloylpiperazin-1-yl)quinazolin-6-yl)-2-methoxypyridin-3-yl)benzenesulfonamide] | 6.3 | 123 | 2.9 |  | 
2 | C=CC(=O)N1CCN(c2ncnc3ccc(-c4cnc(OC)c(NS(=O)(=O)C5CCCCC5)c4)cc23)CC1 [Example 25, N-(5-(4-(4-acryloylpiperazin-1-yl)quinazolin-6-yl)-2-methoxypyridin-3-yl)cyclohexanesulfonamide] | 127 | 288 | 26.9 |  | 
3 | COc1ncc(-c2ccc3ncnc(N4CCN(C(=O)/C=C/C(C)=O)CC4)c3c2)cc1NS(=O)(=O)C1CCCCC1 [Example 26, (E)-N-(2-methoxy-5-(4-(4-(4-oxopent-2-enoyl)piperazin-1-yl)quinazolin-6-yl)pyridin-3-yl)cyclohexanesulfonamide] | 265 | 142 | 44.6 |  | 
4 | C=CC(=O)N1CCN(c2ncnc3ccc(-c4cnc(Cl)c(NS(=O)(=O)c5ccc(F)cc5F)c4)cc23)CC1 [Example 33, N-(5-(4-(4-acryloylpiperazin-1-yl)quinazolin-6-yl)-2-chloropyridin-3-yl)-2,4-difluorobenzenesulfonamide] | 68.7 | 333 | 12.6 |  | 
5 | C=CC(=O)N1CCN(c2ncnc3ccc(-c4cnc(Cl)c(NS(=O)(=O)c5ccc(Cl)s5)c4)cc23)CC1 [Example 35, N-(5-(4-(4-acryloylpiperazin-1-yl)quinazolin-6-yl)-2-chloropyridin-3-yl)-5-chlorothiophene-2-sulfonamide] | 117 | 900 | 5.8 |  | 
6 | CC(=O)/C=C/C(=O)N1CCN(c2ncnc3ccc(-c4cnc(Cl)c(NS(=O)(=O)c5ccc(Cl)s5)c4)cc23)CC1 [Example 36, (E)-5-chloro-N-(2-chloro-5-(4-(4-(4-oxopent-2-enoyl)piperazin-1-yl)quinazolin-6-yl)pyridin-3-yl)thiophene-2-sulfonamide] | 140 | 278 | 21.5 |  | 
7 | C=CC(=O)N1CCN(c2ncnc3c2CN(c2cnc(OC)c(NS(=O)(=O)c4ccc(F)cc4F)c2)CC3)CC1 [Example 41, N-(5-(4-(4-acryloylpiperazin-1-yl)-7,8-dihydropyrido[4,3-d]pyrimidin-6 (5H)-yl)-2-methoxypyridin-3-yl)-2,4-difluorobenzenesulfonamide] | 10.1 | 4290 | 7.6 |  | 
8 | C=C(F)C(=O)N1CCN(c2ncnc3ccc(-c4cnc(OC)c(NS(=O)(=O)c5c(F)cccc5F)c4)cc23)CC1 [Example 43, 2,6-difluoro-N-(5-(4-(4-(2-fluoroacryloyl)piperazin-1-yl)quinazolin-6-yl)-2-methoxypyridin-3-yl) benzenesulfonamide] |  | 27.9 |  | 12.9 | 2.5
9 | COc1ncc(-c2ccc3ncnc(N4CCN(C(=O)/C=C/C(F)(F)F)CC4)c3c2)cc1NS(=O)(=O)c1c(F)cccc1F [Example 44, (E)-2,6-difluoro-N-(2-methoxy-5-(4-(4-(4,4,4-trifluorobut-2-enoyl)piperazin-1-yl)quinazolin-6-yl)pyridin-3-yl) benzenesulfonamide] |  | 41.6 |  | 17.5 | 4.3
10 | C=C(F)C(=O)N1CCN(c2ncnc3ccc(-c4cnc(OC)c(NS(=O)(=O)c5c(F)cccc5F)c4)cc23)[C@@H](C)C1 [Example 45, (S)-2,6-difluoro-N-(5-(4-(4-(2-fluoroacryloyl)-2-methylpiperazin-1-yl)quinazolin-6-yl)-2-methoxypyridin-3-yl) benzenesulfonamide] |  | 164 |  | 38.6 | 2.8
11 | C=C(F)C(=O)N1CC2(CCN(c3ncnc4ccc(-c5cnc(OC)c(NS(=O)(=O)c6c(F)cccc6F)c5)cc34)CC2)C1 [Example 47, 2,6-difluoro-N-(5-(4-(2-(2-fluoroacryloyl)-2,7-diazaspiro[3.5]nonan-7-yl)quinazolin-6-yl)-2-methoxypyridin-3-yl) benzenesulfonamide] |  | 34.3 |  | 25.2 | 2.2
12 | C=C(F)C(=O)N1CC2(CCN(c3ncnc4ccc(-c5cnc(OC)c(NS(=O)(=O)c6c(F)cccc6F)c5)cc34)C2)C1 [Example 48, 2,6-difluoro-N-(5-(4-(2-(2-fluoroacryloyl)-2,6-diazaspiro[3.4]octan-6-yl)quinazolin-6-yl)-2-methoxypyridin-3-yl) benzenesulfonamide] |  | 52.6 |  | 13.2 | 0.63
13 | C=CC(=O)N1CC2(CCN(c3ncnc4ccc(-c5cnc(OC)c(NS(=O)(=O)c6c(F)cccc6F)c5)cc34)CC2)C1 [Example 50, N-(5-(4-(2-acryloyl-2,7-diazaspiro[3.5]nonan-7-yl)quinazolin-6-yl)-2-methoxypyridin-3-yl)-2,6-difluorobenzene-sulfonamide] |  | 31.1 |  | 11.4 | 0.61
14 | C=CC(=O)N1CC(N2CCN(c3ncnc4ccc(-c5cnc(OC)c(NS(=O)(=O)c6ccc(F)cc6F)c5)cc34)CC2)C1 [Example 55, N-(5-(4-(4-(1-acryloylazetidin-3-yl)piperazin-1-yl)quinazolin-6-yl)-2-methoxypyridin-3-yl)-2,4-difluorobenzene-sulfonamide] |  | 39.5 |  | 43.5 | 1.2
15 | C=C(F)C(=O)N1CC(N2CCN(c3ncnc4ccc(-c5cnc(OC)c(NS(=O)(=O)c6ccc(F)cc6F)c5)cc34)CC2)C1 [Example 57, 2,4-difluoro-N-(5-(4-(4-(1-(2-fluoroacryloyl)azetidin-3-yl)piperazin-1-yl)quinazolin-6-yl)-2-methoxypyridin-3-yl)benzenesulfon-amide] |  | 29.9 |  | 33.4 | 1.9
16 | C=C(F)C(=O)N1CC2(CCN(c3ncnc4ccc(-c5cnc(OC)c(NS(=O)(=O)c6ccc(F)cc6F)c5)cc34)C2)C1 [Example 60, 2,4-difluoro-N-(5-(4-(2-(2-fluoroacryloyl)-2,6-diazaspiro[3.4]octan-6-yl)quinazolin-6-yl)-2-methoxy-pyridin-3-yl) benzene-sulfonamide] |  | 48.2 |  | 13.5 | 3.9
17 | COc1ncc(-c2ccc3ncnc(N4CCN(C(=O)/C=C/c5ncco5)CC4)c3c2)cc1NS(=O)(=O)c1ccc(F)cc1F [Example 62, (E)-2,4-difluoro-N-(2-methoxy-5-(4-(4-(3-(oxazol-2-yl)acryloyl)piperazin-1-yl)quinazolin-6-yl)pyridin-3-yl) benzene-sulfonamide] |  | 15.1 |  | 12.5 | 11.8
18 | COC/C=C/C(=O)N1CCN(c2ncnc3ccc(-c4cnc(OC)c(NS(=O)(=O)c5ccc(F)cc5F)c4)cc23)CC1 [Example 64, (E)-2,4-difluoro-N-(2-methoxy-5-(4-(4-(4-methoxybut-2-enoyl)piperazin-1-yl)quinazolin-6-yl)pyridin-3-yl) benzene-sulfonamide] |  | 12.6 |  | 14.6 | 16.7
19 | C=C(COC)C(=O)N1CCN(c2ncnc3ccc(-c4cnc(OC)c(NS(=O)(=O)c5ccc(F)cc5F)c4)cc23)CC1 [Example 65, 2,4-difluoro-N-(2-methoxy-5-(4-(4-(2-(methoxy-methyl)acryloyl)piperazin-1-yl)quinazolin-6-yl)pyridin-3-yl) benzene-sulfonamide] |  | 25.1 |  | 53 | 3.9
20 | C=C(OC)C(=O)N1CCN(c2ncnc3ccc(-c4cnc(OC)c(NS(=O)(=O)c5ccc(F)cc5F)c4)cc23)CC1 [Example 66, 2,4-difluoro-N-(2-methoxy-5-(4-(4-(2-methoxy-acryloyl)piperazin-1-yl)quinazolin-6-yl)pyridin-3-yl) benzene-sulfonamide] |  | 13.5 |  | 14.8 | 13.8
21 | C=C(F)C(=O)N1C[C@H](C)N(c2ncnc3ccc(-c4cnc(OC)c(NS(=O)(=O)c5ccc(F)cc5F)c4)cc23)C[C@H]1C [Example 68, 2,4-difluoro-N-(5-(4-((2S,5R)-4-(2-fluoroacryloyl)-2,5-dimethyl-piperazin-1-yl)quinazolin-6-yl)-2-methoxy-pyridin-3-yl) benzene-sulfonamide] |  | 861 |  | 27.7 | 1.4
22 | COc1ncc(-c2ccc3ncnc(N4CCC5(CC=CC5=O)CC4)c3c2)cc1NS(=O)(=O)c1c(F)cccc1F [Example 71, 2,6-difluoro-N-(2-methoxy-5-(4-(1-oxo-8-azaspiro[4,5]dec-2-en-8-yl)quinazolin-6-yl)pyridin-3-yl)benzenesulfonamide] |  | 75 |  | 31.5 | 2.1
